Several values for one entry are separate records, joined by “and”; a condition that tells them apart may be missing. Identical values can stand only once. Like-named read-outs stand apart in the source and are kept apart here.
How the values were obtained:
L. tropica promastigotes = assay: Antileishmanial activity on L. tropica promastigotes (MTT); type: cell-based, Leishmania tropica; conditions: for IC50: Leishmania tropica
[1] = tested on: L. infantum promastigotes; assay: Antileishmanial activity on L. infantum promastigotes (MTT); type: cell-based, Leishmania infantum; conditions: for IC50: Leishmania infantum
[2] = tested on: human microvascular endothelial cell line (HMEC-1); assay: Cytotoxicity on HMEC-1 cells (MTT); type: cell-based
L. major (promastigotes) = tested on: L. major (promastigotes); parameters: method as in PMID 20430484, PMID 15183913, PMID 18486471; conditions: Figure 3; cited from earlier work
[3] = tested on: L. mexicana (promastigotes); parameters: method as in PMID 20430484, PMID 15183913, PMID 18486471; conditions: Figure 3; cited from earlier work
[4] = tested on: L. donovani (promastigotes); parameters: method as in PMID 20430484, PMID 15183913, PMID 18486471; conditions: Figure 3; cited from earlier work
[5] = tested on: L. mexicana (amastigotes); parameters: method as in PMID 20430484, PMID 15183913, PMID 18486471; conditions: Figure 3; cited from earlier work
[6] = percent of amphotericin B potency, calculated for each experiment

Compound: C[C@@H]1[C@H](O)[C@@H](C)/C=C/C=C/C=C/C=C/C=C/C=C/C=C/[C@H](O[C@@H]2O[C@H](C)[C@@H](O)[C@H](N)[C@@H]2O)C[C@@H]2O[C@](O)(C[C@@H](O)C[C@@H](O)[C@H](O)CC[C@@H](O)C[C@@H](O)CC(=O)O[C@H]1C)C[C@H](O)[C@H]2C(=O)O [Amph. B, amphotericin B, reference compound]
- IC50 (L. tropica promastigotes; 72 h, promastigotes, MTT, 72 h, starred values mean of two experiments, read-out: IC50 (µM) L. tropica): 0.113 ± 0.03 µM
- IC50 (L. tropica promastigotes; range of values across experiments, read-out: IC50 range over many different experiments, L. tropica): 0.082 to 0.177 µM
- IC50 amph. B ×100/IC50 compd., L. tropica (L. tropica promastigotes; [6]): 100
- IC50 ([1]; promastigotes, MTT, 72 h, read-out: IC50 (µM) L. infantum): 0.135 ± 0.03 µM
- IC50 ([1]; range of values across experiments, read-out: IC50 range over many different experiments, L. infantum): 0.094 to 0.209 µM
- IC50 amph. B ×100/IC50 compd., L. infantum [1, 6]: 100
- IC50 ([2]; Homo sapiens, cytotoxicity, HMEC-1 cells, MTT): 25.7 ± 1.9 µM
- SI L. infantum (IC50 HMEC-1/IC50 L. infantum) ([2]; selectivity index, HMEC-1): 190.4
- SI L. tropica (IC50 HMEC-1/IC50 L. tropica) ([2]; selectivity index, HMEC-1): 227.4
- IC50 (L. major (promastigotes)): 610 nM

Compound: N=C(N)c1ccc(OCCCCCOc2ccc(C(=N)N)cc2)cc1 [pentamidine]
- IC50 [3]: 2420 nM
- IC50 [4]: 2200 nM and 2870 nM
- IC50 [5]: 9570 nM

From paper PMC7011974, “Benzimidazole derivatives endowed with potent antileishmanial activity” (Journal of Enzyme Inhibition and Medicinal Chemistry, 2017)
